In PubChem BioAssay (NCI):
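Protocol summary: plate cells (96-well), add compound at 5 concentrations, incubate 48 h, interpolate endpoints linearly. TGI is the concentration that stops growth completely.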

Assays:
Assay in all cases: DTP human tumour cell line panel, 48 h
786-0 renal = test system: 786-0 renal
A498 renal = test system: A498 renal
A549 NSCLC = test system: A549 NSCLC
ACHN renal = test system: ACHN renal
BT-549 breast = test system: BT-549 breast
CAKI-1 renal = test system: CAKI-1 renal
CCRF-CEM leukemia = test system: CCRF-CEM leukemia
COLO 205 colon = test system: COLO 205 colon
DU-145 prostate = test system: DU-145 prostate
EKVX NSCLC = test system: EKVX NSCLC
HCC-2998 colon = test system: HCC-2998 colon
HCT-116 colon = test system: HCT-116 colon
HCT-15 colon = test system: HCT-15 colon
HL-60(TB) leukemia = test system: HL-60(TB) leukemia
HOP-62 NSCLC = test system: HOP-62 NSCLC
HOP-92 NSCLC = test system: HOP-92 NSCLC
HS 578T breast = test system: HS 578T breast
HT29 colon = test system: HT29 colon
IGROV1 ovarian = test system: IGROV1 ovarian
K-562 leukemia = test system: K-562 leukemia
KM12 colon = test system: KM12 colon
LOX IMVI melanoma = test system: LOX IMVI melanoma
M14 melanoma = test system: M14 melanoma
MALME-3M melanoma = test system: MALME-3M melanoma
MCF7 breast = test system: MCF7 breast
MDA-MB-231 breast = test system: MDA-MB-231 breast
MDA-MB-435 = test system: MDA-MB-435
NCI-H226 lung = test system: NCI-H226 lung
NCI-H23 lung = test system: NCI-H23 lung
NCI-H460 lung = test system: NCI-H460 lung
NCI-H522 lung = test system: NCI-H522 lung
NCI/ADR-RES ovarian = test system: NCI/ADR-RES ovarian
OVCAR-3 ovarian = test system: OVCAR-3 ovarian
OVCAR-4 ovarian = test system: OVCAR-4 ovarian
OVCAR-5 ovarian = test system: OVCAR-5 ovarian
OVCAR-8 ovarian = test system: OVCAR-8 ovarian
PC-3 prostate = test system: PC-3 prostate
RPMI-8226 leukemia = test system: RPMI-8226 leukemia
RXF 393 renal = test system: RXF 393 renal
SF-268 CNS = test system: SF-268 CNS
SF-295 CNS = test system: SF-295 CNS
SF-539 CNS = test system: SF-539 CNS
SK-MEL-2 melanoma = test system: SK-MEL-2 melanoma
SK-MEL-28 melanoma = test system: SK-MEL-28 melanoma
SK-MEL-5 melanoma = test system: SK-MEL-5 melanoma
SN12C renal = test system: SN12C renal
SNB-19 CNS = test system: SNB-19 CNS
SNB-75 CNS = test system: SNB-75 CNS
SR leukemia = test system: SR leukemia
SW-620 colon = test system: SW-620 colon
T-47D breast = test system: T-47D breast
TK-10 renal = test system: TK-10 renal
U251 CNS = test system: U251 CNS
UACC-257 melanoma = test system: UACC-257 melanoma
UACC-62 melanoma = test system: UACC-62 melanoma
UO-31 renal = test system: UO-31 renal

CC1=C(C(=O)c2ccccc2)C23C(=O)N(c4ccccc4)C(=O)C2=C(O)C=CC3(O)N1 (stereo unspecified)
TGI (786-0 renal): > 100 µM
TGI (A498 renal): > 100 µM
TGI (A549 NSCLC): > 100 µM
TGI (ACHN renal): 40.4 µM
TGI (BT-549 breast): 49.2 µM
TGI (CAKI-1 renal): > 100 µM
TGI (CCRF-CEM leukemia): > 100 µM
TGI (COLO 205 colon): > 100 µM
TGI (DU-145 prostate): > 100 µM
TGI (EKVX NSCLC): > 100 µM
TGI (HCC-2998 colon): 56.4 µM
TGI (HCT-116 colon): > 100 µM
TGI (HCT-15 colon): > 100 µM
TGI (HL-60(TB) leukemia): 50.7 µM
TGI (HOP-62 NSCLC): > 100 µM
TGI (HOP-92 NSCLC): 60 µM
TGI (HS 578T breast): > 100 µM
TGI (HT29 colon): 32.3 µM
TGI (IGROV1 ovarian): 51.9 µM
TGI (K-562 leukemia): 75.1 µM
TGI (KM12 colon): 53.5 µM
TGI (LOX IMVI melanoma): 61.1 µM
TGI (M14 melanoma): > 100 µM
TGI (MALME-3M melanoma): 65.1 µM
TGI (MCF7 breast): > 100 µM
TGI (MDA-MB-231 breast): > 100 µM
TGI (MDA-MB-435): > 100 µM
TGI (NCI-H226 lung): > 100 µM
TGI (NCI-H23 lung): > 100 µM
TGI (NCI-H460 lung): > 100 µM
TGI (NCI-H522 lung): 28.9 µM
TGI (NCI/ADR-RES ovarian): > 100 µM
TGI (OVCAR-3 ovarian): 58.9 µM
TGI (OVCAR-4 ovarian): > 100 µM
TGI (OVCAR-5 ovarian): > 100 µM
TGI (OVCAR-8 ovarian): 98.9 µM
TGI (PC-3 prostate): > 100 µM
TGI (RPMI-8226 leukemia): > 100 µM
TGI (RXF 393 renal): 43 µM
TGI (SF-268 CNS): > 100 µM
TGI (SF-295 CNS): > 100 µM
TGI (SF-539 CNS): > 100 µM
TGI (SK-MEL-2 melanoma): 57.3 µM
TGI (SK-MEL-28 melanoma): 39.2 µM
TGI (SK-MEL-5 melanoma): 41.9 µM
TGI (SN12C renal): > 100 µM
TGI (SNB-19 CNS): > 100 µM
TGI (SNB-75 CNS): 77.5 µM
TGI (SR leukemia): 46.3 µM
TGI (SW-620 colon): 72.7 µM
TGI (T-47D breast): > 100 µM
TGI (TK-10 renal): > 100 µM
TGI (U251 CNS): 81.5 µM
TGI (UACC-257 melanoma): > 100 µM
TGI (UACC-62 melanoma): 48 µM
TGI (UO-31 renal): 37.8 µM
